Where a name gives a salt, the structure may show the parent alone. Read-outs that look alike come from different tables or passages of the source.

Series [1] can be described thus: Transdermal flux test of topical patch formulations (Franz cell). In kind it is in vitro ADME. The text has this:
Human cadaver skin was used and epidermal layers (stratum corneum and epidermis) were separated from the full-thickness skin as skin membrane. Samples were die-cut with an arch punch to a final diameter of about 2.0 cm^2. The release liner was removed and the drug delivery system was placed on top of the epidermis/stratum corneum with the drug adhesive layer facing the stratum corneum. Gentle pressure was applied to effect good contact between the adhesive layer and stratum corneum. The donor and receptor sides of the Franz cell were clamped together and the receptor solution containing 0.9% sodium chloride, 1% Tween 80 and 0.01% Gentamicin was added to the Franz cell. The cells were kept at 33° C. for the duration of the experiment. Samples of the receptor solution were taken at regular intervals and the active agent concentration was measured by HPLC. The removed receptor solution was replaced with fresh solution to maintain the sink conditions. The flux was calculated from the slope of cumulative amounts of the drug in the receiver compartment versus time plot.

The conditions of series [2]: orally administered fingolimod HCl; cited from earlier work.
Series [3] is described as follows: Transdermal flux test of fingolimod HCl gel and solutions (Franz cell). In kind it is in vitro ADME, human. To be noted: during the first 8 hours of the experiments. The procedure: Human cadaver skin was used and epidermal layers (stratum corneum and epidermis) were separated from the full-thickness skin as skin membrane and placed on top of the Franz cell. The donor compartment chamber and receptor sides of the Franz cell were clamped together. A receptor solution containing 0.9% sodium chloride was added to the cell. Solution samples or gel samples were inserted into the donor compartment chamber on top of the epidermis/stratum corneum. The cells were kept at a temperature of 33° C. during the entire experiment. Samples of the receptor solution were taken at regular intervals and the active agent concentration was measured by HPLC. The removed receptor solution was replaced with fresh solution to maintain the sink conditions. The flux was calculated from the slope of the cumulative amounts of the drug in the receiver compartment versus time.

A short description of series [4]: Solubility of fingolimod in patch adhesive. The class given is physicochemical.

For `CCCCCCCC/C=C\CCCCCCCC(=O)OCC(O)CO` (centres unmarked) [GMO, Glyceryl monooleate], in series [1] (excipient in fingolimod base patches in Duro-Tak 9301, human cadaver skin, FIG. 3), the “effect on the fingolimod flux” value is reported as “enhancement effect”.
With `CCCCCCCCCCCCOC(=O)C(C)O` (centres unmarked) [LL, Lauryl Lactate], the “effect on the fingolimod flux” value in series [1] was “enhancement effect”.
For the compound `CCCCCCCCc1ccc(CCC(N)(CO)CO)cc1` [fingolimod HCl, fingolimod hydrochloride], in series [2], the “peak to trough fluctuations, non-phosphorylated fingolimod” value is on record as at most 20% and the “peak to trough fluctuations, phosphorylated (active) form of fingolimod” value is at most 45%.
Turning to `CCCCCCCCc1ccc(CCC(N)(CO)CO)cc1` [fingolimod, 2-amino-2-[2-(4-octylphenyl)ethyl]propane-1,3-diol], in series [3], the “detection of fingolimod in the receptor solutions” value was “not detected”. In series [4] (Duro-Tak 87-9301 adhesive), the “solubility of fingolimod in adhesive” value is listed as “less than 1%”. The “solubility of fingolimod in the adhesive” value in series [4] (PIB adhesive) and in series [4] (acrylate polymer adhesive Duro-Tak 900A) was “less than 1%” in each case.

The values above are taken from patent publication US10188616B2, “Topical sphingosine-1-phosphate receptor agonist formulations and methods of using the same” (Teikoku Pharma USA, Inc., priority 2013, dated 2019).
